“Also recorded” adds a separate entry of the source.
Columns and labels:
[1] = tested on: primary PRX1 expressing SSCs isolated from the calvarial sutures of PRX1-creER-EGFP mice; assay: MTT proliferation assay of primary PRX1 expressing cells isolated from calvarial sutures; format: cell-based, mouse; settings: for ability to induce proliferation of primary PRX1 expressing SSCs (screen of 5 WNT inhibitors): most effective concentrations of previous studies, FIGS. 22A-22B
Excerpt: (§1) FIGS. 22A-22H. […] (22A-22B) MTT proliferation assays of primary PRX1 expressing cells isolated from the calvarial sutures of PRX1-creER-EGFP+/+ mice. […] (22C) MTT proliferation assays of immortalized PRX1 expressing cells isolated from the calvarial sutures of PRX1-creER-EGFP+/+ mice. […] (22D-22F) Quantitative RT-PCR of osteoblast differentiation genes of immortalized PRX1 expressing cells isolated from the calvarial sutures of PRX1-creER-EGFP+/+ mice. […] (22G-22H) FAC-sorting analysis of tissue-cultured sutures isolated from of PRX1-creER-EGFP+/+ mice. Suture were explanted and cultured ex vivo.
(§2) WNT inhibitor candidates were identified by looking into cancer studies, as thousands of small molecules have been screened for their potential to inhibit WNT signaling in WNT-activated cancer cells (30). Several molecules have shown inhibition of canonical WNT activity in vitro but only few have been tested in vivo, in mice. Among those tested in vivo, 5 were selected because of their proven efficacy and safety: G007-LK (31), Pyrvinium (25,26), Quercetin (32,33), XAV939 (27), and Niclosamide (34). Actually, Niclosamide and Pyrvinium are anti-helminthic FDA-approved drugs (35,36) and Quercetin is a flavonol found in many fruits and vegetables that is used as an ingredient in supplements, beverages, or foods (33). […] Previous studies indicate that Niclosamide, besides inhibiting the WNT pathway, presents with various additional effects such as uncoupling oxidative phosphorylation and disrupting several different signaling pathways, including the NOTCH, mTORCT, NFkB, and STAT3 pathways (38-44).

[2] = tested on: critical size calvarial bone defect; assay: Local delivery in carboxymethylcellulose gel into critical size calvarial bone defect, μCT; format: in vivo, mouse; settings: 2 mm defect, 8 week old C57Bl/6 female mice, 10 μL 12% carboxymethylcellulose gel containing 100 μg niclosamide, 4 weeks after surgery, n=3
Method: Immediately after creation of the defect, 10 μL of a 12% carboxymethylcellulose gel (CONTROL) (24A) or 10 μL of a 12% carboxymethylcellulose gel containing 100 μg of niclosamide (TEST) (24B) were implanted within the bone defect. […] Student's t-test was used for statistical evaluation (n=3, ** indicates p<0.01). […] Immediately after creation of the defect, 10 μL of a 12% carboxymethylcellulose gel (CONTROL) or 10 μL of a 12% carboxymethylcellulose gel containing 100 g of niclosamide (TEST) were implanted within the bone defect (FIGS. 24A-24B). Bone regeneration was assessed by means of μCT, 4 weeks after surgery (FIG. 25). Student's t-test was used for statistical evaluation (n=3, ** indicates p<0.01).

[3] = tested on: periodontal ligament stem cells expressing Prx1 from mouse incisors; assay: Flow cytometry quantification of Prx1 (GFP) expressing periodontal ligament cells in vitro; format: cell-based; settings: 48 hours
Excerpt: To perform these studies, transgenic mice was utilized expressing green fluorescent protein (GFP) under the Prx1 promoter. Thus, using these transgenic mice, quantification of GFP expressing cells by means of flow cytometry can be utilized to quantify Prx1 expressing cells.

[4] = tested on: critical size calvarial bone defect; assay: Local delivery absorbed into a collagen sponge into critical size calvarial bone defect, μCT; format: in vivo, mouse; settings: collagen sponge carrying 5 μg or 50 μg
Method: To test whether Niclosamide can induce bone regeneration when delivered by means of a collagen sponge instead of a methylcellulose gel, a critical size calvarial bone defect was created (2 mm in diameter) in the right parietal bone of skeletally mature C57Bl/6 female mice (8 week old mice). Immediately after creation of the defect, 5 μL of a 1 pg/pl solution of Niclosamide (dissolved in DMSO) or 5 μl of a 10 μg/μl solution of Niclosamide (dissolved in DMSO) were absorbed into a 1 mm×1 mm×1 mm collagen sponge. Then, the sponge carrying either 5 μg or 50 μg of Niclosamide was implanted into the calvarial bone defects (n=3). Bone defects of the control groups received collagen sponges absorbed with equal volumes (5 μl) of DMSO only Bone regeneration was assessed by means of μCT, 8 weeks after surgery (FIGS. 27A-27C) 3D rendering, (FIG. 27D) quantitative assessment of the regenerated Bone Volume (BV) within the Total Volume (TV) of the calvarial bone defects).

PRX1 expressing SSCs = assay: In vivo flow cytometry quantification of PRX1 expressing SSCs after IP treatment; parameters: species or system mouse; settings: 8-week old mice, 20 mg/Kg IP, 5 days/week
Method: (§3) FIGS. 23A-23D. […] (23A-23C) Flow cytometry was utilized to quantify the number of PRX1 expressing SSCs after treatment with Niclosamide (20 mg/kg of body weight, IP, 5 days/week, for 3 consecutive weeks) or with vehicle (control) in calvarial sutures (23A), in the periosteum of long bones (23B), and in the periodontal ligament of posterior molar teeth (23C). 4 mice/treatment (2 males and 2 females). (23D) Micro-computed tomography was utilized to measure bone mass (BV/TV) in the femurs of male and female mice after treatment with Niclosamide (20 mg/kg of body weight, IP, 5 days/week for 3 consecutive weeks) or with vehicle (control) (n=2). […] To do so, skeletally mature 8-week old mice were treated with intraperitoneal (IP) injections of Niclosamide (20 mg/Kg of body weight) or vehicle (control) 5 days/week, for 3 weeks (FIGS. 23A-23D).

[5] = tested on: osteoblast differentiation genes (RUNX2, SP7, Osteocalcin) in immortalized PRX1 expressing cells; assay: Quantitative RT-PCR of osteoblast differentiation genes in immortalized PRX1 expressing cells; format: cell-based, mouse
Excerpt: as §1, §2

[6] = tested on: immortalized PRX1 expressing cells isolated from the calvarial sutures of PRX1-creER-EGFP+/+ mice; assay: MTT proliferation assay of immortalized PRX1 expressing cells; format: cell-based, mouse; settings: after 48 hours (FIG. 22C)
Excerpt: as §1
(§4) WNT inhibitor candidates were identified by looking into cancer studies, as thousands of small molecules have been screened for their potential to inhibit WNT signaling in WNT-activated cancer cells (30). Several molecules have shown inhibition of canonical WNT activity in vitro but only few have been tested in vivo, in mice. Among those tested in vivo, 5 were selected because of their proven efficacy and safety: G007-LK (31), Pyrvinium (25,26), Quercetin (32,33), XAV939 (27), and Niclosamide (34). Actually, Niclosamide and Pyrvinium are anti-helminthic FDA-approved drugs (35,36) and Quercetin is a flavonol found in many fruits and vegetables that is used as an ingredient in supplements, beverages, or foods (33). […]

[7] = tested on: GFP+ (PRX1 expressing) and GFP- cells of explanted calvarial sutures of PRX1-creER-EGFP+/+ mice; assay: FAC-sorting analysis of tissue-cultured explanted sutures (ex vivo); format: cell-based, mouse
Excerpt: as §1
However, no increase of GFP-cells (22H) is detected. All above studies (22A-22E) were repeated 2 or 3 times, with consistent results.
as §4, with “(34).” for “(34). Actually, Niclosamide and Pyrvinium are anti-helminthic FDA-approved drugs (35,36) and Quercetin is a flavonol found in many fruits and vegetables that is used as an ingredient in supplements, beverages, or foods (33).”

[8] = Micro-computed tomography of femur bone mass (BV/TV) after IP treatment; format: in vivo, mouse; settings: male and female mice, 20 mg/Kg IP, 5 days/week, 3 weeks (FIG. 23D)
Method: as §3

| SMILES | ability to induce proliferation of primary PRX1 expressing SSCs (screen of 5 WNT inhibitors) [1] | bone regeneration by μCT [2] | number of Prx1 expressing (GFP) cells ([3]; 0.2 μM and 2 μM, more significant increases with higher doses) | increase of number of Prx1 expressing (GFP) cells ([3]; 2 μM, flow cytometry (FIG. 26E)) | proliferation (MTT) of primary PRX1 expressing cells ([1]; after 24 hours (FIG. 22A)) | proliferation (MTT) of primary PRX1 expressing cells ([1]; after 48 hours (FIG. 22B)) | effect on proliferation compared with the other screened molecules ([1]; comparison with Pyrvinium and Quercetin) | regenerated Bone Volume (BV) within Total Volume (TV) of the defect by μCT ([4]; 2 mm defect, 8 week old C57Bl/6 female mice, 8 weeks after surgery, n=3, not statistically significant) | adverse events / general health ([4]; 8 weeks) | proliferation of PRX1 expressing SSCs in the calvarial sutures (PRX1 expressing SSCs; 3 weeks (FIG. 23A)) | proliferation of PRX1 expressing SSCs in the periosteum of long bones (PRX1 expressing SSCs; 3 weeks (FIG. 23B)) | proliferation of PRX1 expressing SSCs in the periodontal ligament of the mouse molars (PRX1 expressing SSCs; 3 weeks (FIG. 23C)) | osteoblastic differentiation of PRX1 expressing SSCs (qRT-PCR) ([5]; FIGS. 22D-22F) | expression of RUNX2 (qRT-PCR) ([5]; immortalized PRX1 expressing cells, after 48 hours (FIG. 22D)) | expression of SP7 (qRT-PCR) ([5]; immortalized PRX1 expressing cells, after 48 hours (FIG. 22E)) | expression of Osteocalcin (OCN) (qRT-PCR) ([5]; immortalized PRX1 expressing cells, after 48 hours (FIG. 22F)) | proliferation (MTT) of immortalized PRX1 expressing cells [6] | GFP+ cells (PRX1 expressing cells) in explanted sutures ([7]; 2 weeks of incubation (FIG. 22G)) | GFP- cells (other cells of the sutures) in explanted sutures ([7]; 2 weeks of incubation (FIG. 22H)) | bone mass (BV/TV) of femurs [8] |
| --- | --- | --- | --- | --- | --- | --- | --- | --- | --- | --- | --- | --- | --- | --- | --- | --- | --- | --- | --- | --- |
| O=c1c(O)c(-c2ccc(O)c(O)c2)oc2cc(O)cc(O)c12 [Quercetin] | able to consistently induce proliferation |  |  |  |  |  |  |  |  |  |  |  |  |  |  |  |  |  |  |  |
| O=C(Nc1ccc([N+](=O)[O-])cc1Cl)c1cc(Cl)ccc1O [Niclosamide] | able to consistently induce proliferation | substantial amount of bone regeneration | increase in number | ~3.5 folds | statistically significant proliferation | statistically significant proliferation | most significant and prolonged effect | trend of increasing of the regenerated bone mass | no adverse events were recorded | induces proliferation | induces proliferation | induces proliferation | inhibits their osteoblastic differentiation | statistically significant downregulation | statistically significant downregulation | statistically significant downregulation | could induce proliferation; also recorded: statistically significant proliferation | proliferation of the PRX1 expressing SSCs was observed; also recorded: statistically significant increase | could not be detected; also recorded: no increase | does not significantly reduce the bone mass |
| Cc1cc(/C=C/c2ccc3cc(N(C)C)ccc3[n+]2C)c(C)n1-c1ccccc1 [Pyrvinium] | able to consistently induce proliferation |  |  |  | statistically significant proliferation | statistically significant proliferation |  |  |  |  |  |  |  |  |  |  |  |  |  |  |

Reference: US20260108480A1, “METHODS FOR INDUCING PROLIFERATION OF STEM CELLS” (UNIVERSITY OF PITTSBURGH-OF THE COMMONWEALTH SYSTEM OF …, priority 2022, published 2026)
